{
  "source": "paper PMC10020447",
  "about": "“Potent acyl-CoA synthetase 10 inhibitors kill Plasmodium falciparum by disrupting triglyceride formation” (Nature Communications, 2023)",
  "key": {"[1]": {"test_system": "T1, Plasmodium falciparum 3D7", "T1 construct": "3D7 parental line, asexual blood stage", "test": "microbe, parasite or virus in culture", "parameters": "species or system P. falciparum 3D7 in human erythrocytes; Asexual blood stage growth inhibition dose response of parental 3D7 parasites, EC50", "conditions": "3D7, Erythrocyte", "excerpt": "Fig. 1 Gene-edited PfACS10 and PfACS11 lines phenocopy parasite lines selected to become resistant to a range of antiplasmodial chemotypes. a Chemical structures of the compounds used in drug selections. b–d Dose response curves for a representative example of the parental 3D7 line (black), the selected lines (ACS11E668K_S, ACS11F387V_S, and ACS10M300I_S) and the genetically edited lines (ACS11E668K_C, ACS11F387V_C, and ACS10M300I_C) against the compound used to select for the resistant lines. At least three biological replicates were run for each strain in technical triplicates. Shown are the average ±SD and the non-linear regression curve fit for one biological assay run in triplicate. Statistical significances for EC50 are reported in Supplementary Data 1 and source data are provided as a Source Data file. Previous work by the MalDA consortium identified MMV019719 and MMV665924 as two new phenotypic hits from the chemically diverse Medicines for Malaria Venture (MMV) Malaria Box[8],[12]. […] To verify the role of these mutations in conferring resistance to these two compounds (resistance is defined here as a more than 2-fold shift in EC50 values in in vitro culture compared to the parental line), we used CRISPR/Cas9 technology to perform allelic replacements of a subset of the mutations observed (Supplementary Fig. 1 and Supplementary Table 1). Using the 3D7 parental line, we introduced the individual point mutations F387V or E668K into PfACS11 and M300I into PfACS10, yielding the gene-edited lines ACS11F387V_C, ACS11E668K_C, and ACS10M300I_C. These parasites phenocopied the increase in EC50 values seen in drug-selected compared to wildtype parasites (Fig. 1a–c and Supplementary Data 1). These findings confirm that the mutations in PfACS10 and PfACS11 identified by resistance selections with MMV019719 and MMV665924 are sufficient to reduce susceptibility to these compounds. […] MMV019719, MMV665924, and MMV897615 were freely available as part of the Medicines for Malaria Venture’s (MMV) Malaria Box. Triacsin C was purchased from Sigma-Aldrich (St. Louis, MO, ref. T4540). The 3D7 P. falciparum strain was originally obtained through MR4 as part of the BEI Resources Repository, NIAID, NIH: 3D7, MRA-102, deposited by D. J. Carucci. We also used 3D7- IG06 (a fast-growing 3D7 clone)[64] donated by Daniel Goldberg and Dd2-Polδ[23] donated by Marcus Lee. The Malawi parasites (CF04.008 10B and CF04.009 6D and 1 G, two different patient isolates that were subcloned after culture adaption) were kindly donated by Danny Milner[26]. Parasites were cultured by standard methods[65] in RPMI 1640 medium supplemented with 28 mM NaHCO3, 25 mM HEPES, 400 μM hypoxanthine, 25 μg/mL gentamicin, and 0.5% AlbuMAX II (Life Technologies, Carlsbad, CA 11021-045). The human erythrocytes were sourced ethically, and their research use was in accord with the terms of approved protocol."}, "[2]": {"test_system": "T2, Plasmodium falciparum PolD (Dd2-Polδ)", "T2 construct": "Dd2-Polδ parental hypermutator line, wild-type PfACS10, asexual blood stage", "test": "microbe, parasite or virus in culture", "parameters": "species or system P. falciparum Dd2-Polδ in human erythrocytes; Parasite survival dose response by flow cytometry with SYBR Green and MitoTracker Deep Red, EC50", "conditions": "DD2, Erythrocyte, 72 h", "protocol": "To define the EC50 of parasites, ring-stage cultures at 0.2% parasitemia and 1% hematocrit were exposed for 72 h to a range of ten drug concentrations that were 2-fold serially diluted in duplicates along with DMSO controls. Parasite survival was assessed by flow cytometry on an iQue flow cytometer (Sartorius) using SYBR Green and MitoTracker Deep Red FM (Life Technologies) as nuclear stain and vital dyes respectively. Fig. 2 Mutations in PfACS10 can cause collateral sensitivity to distinct chemotypes. Mean EC50 ± SD values for strains containing mutations in PfACS10 selected in the Dd2-Polδ line (A268D, A268V, and F427L) and in 3D7 (M300I), are shown for MMV897615, MMV665924, and MMV019719. Assays were run in triplicate and at least repeated twice. ANOVA with Dunnett post-tests compared mutations in the Dd2-Polδ line, a p < 0.001, b p = 0.005. Two-sided unpaired Student’s t test compared 3D7 and ACS10M300I_C. c p = 0.0003, d p = 0.0000008, e p = 0.0016. Source data are provided as a Source Data file and in Supplementary Data 1. More recently, we performed selections in a hypermutator P. falciparum line (Dd2-Polδ[23]) with MMV897615, which yielded three novel mutations in PfACS10 that confer at least a seven-fold increase in resistance (ACS10A268D, ACS10A268V, and ACS10F427L, Fig. 2 and Supplementary Data 1 and 3). […]"}},
  "note": "Where two headings read alike, the source gives them in different places.",
  "data": [
    {"smiles": "CCC/C=C/C/C=C/C=C/C=N/NN=O", "note": "[Triacsin C]", "values": [
      {"measurement": "EC50", "setting": "[1]; read-out: Triacsin / EC50 [nM]", "value": 549, "unit": "nM"}
    ]},
    {"smiles": "CCN(CC)Cc1cc(Nc2ccnc3cc(Cl)ccc23)ccc1O", "note": "[amodiaquine]", "values": [
      {"measurement": "EC50", "setting": "[1]; read-out: Amodiaquin (ADQ) / EC50 [nM]", "value": 4.34, "unit": "nM"}
    ]},
    {"smiles": "C=C[C@H]1CN2CC[C@H]1C[C@H]2[C@H](O)c1ccnc2ccc(OC)cc12", "note": "[quinine]", "values": [
      {"measurement": "EC50", "setting": "[1]; read-out: Quinine (QN) / EC50 [nM]", "value": 37.3, "unit": "nM"}
    ]},
    {"smiles": "O=C1C(O)=C([C@H]2CC[C@H](c3ccc(Cl)cc3)CC2)C(=O)c2ccccc21", "note": "[atovaquone]", "values": [
      {"measurement": "EC50", "setting": "[1]; read-out: Atovaquone (ATQ) / EC50 [nM]", "value": 0.287, "unit": "nM"}
    ]},
    {"smiles": "COc1ccc(C(=O)C2CC2c2ccc(Cl)cc2)cc1", "note": "(stereo not drawn) [MMV665924]", "values": [
      {"measurement": "EC50", "setting": "[2]; read-out: MMV665924 / EC50 [nM] (a) / EC50 [nM] (c)", "value": 1360, "unit": "nM"},
      {"measurement": "EC50", "setting": "[1]; read-out: MMV665924 / EC50 [nM] (a)", "value": 340, "unit": "nM"}
    ]},
    {"smiles": "O[C@@H](c1cc(C(F)(F)F)nc2c(C(F)(F)F)cccc12)[C@H]1CCCCN1", "note": "(racemic) [mefloquine]", "values": [
      {"measurement": "EC50", "setting": "[1]; read-out: Mefloquine (MQ) / EC50 [nM]", "value": 15.3, "unit": "nM"}
    ]},
    {"smiles": "CCc1cccc(CNC(=O)c2nc3cccc(COCc4ccc(C(=O)O)cc4)c3c(=O)[nH]2)c1", "note": "[19f, MMV897615]", "values": [
      {"measurement": "EC50", "setting": "[2]; read-out: MMV897615 / EC50 [nM] (b) / EC50 [nM] (c)", "value": 39.6, "unit": "nM"},
      {"measurement": "EC50", "setting": "[1]; read-out: MMV897615 / EC50 [nM] (b)", "value": 52.9, "unit": "nM"}
    ]}
  ]
}
